In US20080271210A1, “Oryza Sativa Lectin-Like Receptor Kinase 1 (Oslrk1), a Gene Involved in Plant Development” (Temasek Life Sciences Laboratory National University of …, priority 2004, published 2008):

Legend:
WT seeds and seedlings = test: Germination and growth of WT seeds in galactose/mannose containing media; format: in vivo, Oryza sativa
Excerpt: (§1) The altered expression of the Oslrk1 by different sugars described above led us to study the response of the mutant to these monosaccharides and sucrose. The WT and the mutant seeds were germinated and grown in Gal, Man, Glu, Fm along with Suc at different concentrations (ranging from 0.1% to 1%) and Suc alone containing medium as a control. The following parameters were taken into account during observation: the shoot length, the number and the length of adventitious roots and the germination rate. […] Out of these three sugars tested, Man was selected as an example as its inhibitory effect was similar in seeds and seedlings of WT and mutant as shown in FIGS. 10A and B. The seed germination was severely affected by Man.
(§2) At 1.0% of the Gal, the shoot length decreased by half in the mutant, whereas only by 15% in the WT seedlings. […] Apart from this, the germination rate of the WT seeds dropped to 85% whereas in the mutant it dropped to 30%.
(§3) Germination of WT and mutant seeds in galactose/mannose containing media. WT and mutant seeds were germinated separately on MS medium containing 0.8% agar and 1% sucrose. In addition, D(+)galactose/D(+/−)mannose was added in different concentrations (0.1, 0.2, 0.5, and 1.0%) along with a control (MS with 1% of sucrose). At 14 days after germination, the observations for adventitious root number and length (cm), shoot length (cm) and germination rate (%) were recorded.

[1] = test system: Oslrk1 mutant seeds and seedlings; test: Germination and growth of Oslrk1 mutant seeds in galactose/mannose containing media; format: in vivo, Oryza sativa; conditions: for behavior of the mutant compared with the WT upon treatment: sugar 0.1% to 1% along with Suc
Excerpt: as §1, §2, §3

Oslrk11 = test: RT-PCR of Oslrks in treated 2 week-old seedlings; format: in vivo, Oryza sativa; conditions: treated vs control
Protocol: (§4) RT-PCRs were carried out on RNA samples isolated from 2 week-old seedlings treated with various sugar (FIG. 13), hormone (FIG. 14), and abiotic stresses (FIG. 15) using primers designated to either 3′ or 5′ Untranslated Regions (UTRs) of the 15 Oslrks found in Table 2. For each Oslrk two lanes in the gel are found, the first lane is the control and the second one treatment samples.
(§5) Table 3 provides a summary of all the above referenced data on the Oslrks, showing the RT-PCR results of various treatments, including sugar, hormone and abiotic stress and northern blot results on various tissues of rice plant grown in normal conditions, and the ESTs, or cDNAs availability in the database. In the table, “I” represents induced expression and “R” represents repressed expression.

Oslrk4 = test: RT-PCR of Oslrks in treated 2 week-old seedlings; format: in vivo, Oryza sativa; conditions: treated vs control
Protocol: as §4, §5

Oslrk5 = test: RT-PCR of Oslrks in treated 2 week-old seedlings; format: in vivo, Oryza sativa; conditions: treated vs control
Protocol: as §4, §5

Oslrk8 = test: RT-PCR of Oslrks in treated 2 week-old seedlings; format: in vivo, Oryza sativa; conditions: treated vs control
Protocol: as §4, §5

Oslrk1 gene [2] = test: Northern-blot of Oslrk1 transcript in WT seedlings treated with hormones and SA; format: in vivo, Oryza sativa; conditions: for Oslrk1 gene expression repressed by: 3' UTR probe, vs untreated
Excerpt: Differential Regulation of Oslrk1 Gene Expression by Hormones. Receptor-like kinases were postulated to be involved in signal transduction events as they perceive a signal via a ligand-binding extracellular domain and transmit it through the serine/threonine kinase domain into the cytosol (Shiu and Bleecker, 2001). In order to know possible factors influencing the Oslrk1 gene regulation, we analyzed promoter of the Oslrk1 (1.5 kb) for the presence of cis-acting elements using the program PlantCARE (Lescot et al., 2002). Three TGAGC motifs observed in MeJA inducible genes were found in promoter of the Oslrk1 at the positions −186, −657 and −1190. Apart from these, three GA3 inducible motifs (P-box-CCTTxt) −101, −206 and −740 bp upstream of the Oslrk1 ORF were located. In addition, five salicylic acid inducible motifs (TCA-elementcAGAAa/ga) at the positions of −321, −601, −604, −855 and −1135 were detected. The presence of MeJA, GA and SA responsive cis-elements in the Oslrk1 promoter indicated possible regulatory roles of these factors. The promoter analysis led us to study the effect of different hormones and compounds on the Oslrk1 transcription. The WT seeds were germinated for […] then seedlings were transferred to the medium containing one of the following chemicals: […], MeJA, GA3 or ABA at concentration 100 uM and SA (5 mM) for 24 hours (Materials and Methods). The total RNA isolated from the untreated and treated seedlings were used in Northern-blot hybridization using 3′ UTR of the Oslrk1 gene as a probe. The treatment with GA3 and SA repressed the Oslrk1 gene expression (FIG. 8A) by 2.5 and 3.3 times respectively. […] In order to confirm the level of induction of the Oslrk1 gene by MeJA over time, in another series of experiments, a time course was performed after hormone treatment. Seven day old seedlings were sprayed with 100 uM of MeJA solution and they were harvested in 1, 2, 4, 6, 8, and 12 hours.
RNA Isolation and Northern-blot Analysis. RNA was isolated from different organs of rice plant at different developmental stages (roots of 10-14 days old seedlings and 2 months old plants, 10-14 days old seedlings, young and mature leaves, panicles at the flowering stage and calli) using a RNeasy Plant mini kit (Qiagen,). The RNA (10 ug) was fractionated on a 1.2% denaturating formaldehyde agarose gel and transferred onto a Hybond-N^+ membrane (Amersham). The bolts were hybridized with dogoxigenin (DIG)-labeled probes in DIG Easy Hyb solution (Roche) at 50° C. After hybridization, membranes were washed twice with 2×SSC and 0.1% SDS for 15 min, then twice with 0.5×SSC and 0.1% SDS for 15 min at 68° C. Detection was carried out according to manufacturer using DIG Wash and Block Buffer set and chemiluminescent substrate CDP Star™ (Roche). DIG-labelled probe corresponded to 3′UTR and lectin domain of Oslrk1 was used. For the control of RNA quantity, DIG-probe corresponding to rice Actin1 gene was synthesized using the following primers: […]
(§6) The RT-PCRs and Northern blots were repeated at least thrice and similar results were obtained. The quantification of the intensity of the hybridization signals was performed using Quantity ONE 4.5.0 software in Gel doc XR documentation system (Bio-Rad Laboratories, Inc., USA). The level of actual expression was calculated as a ratio of intensity of specific signal (Oslrk1 3′UTR probe) to the intensity of signal of positive control (rice Act1).
Treatment of WT Seedlings with Hormones and Sugars. Two week old WT seedlings were transferred to MS medium containing 100 μM of different hormones, such as Indole 3-Acetic Acid (IAA), Abscisic acid (ABA), Methyl Jasmonate (MeJA), or Gibbrellic Acid (GA3) and 5 mM of Salicylic Acid (SA), and were grown for 24 hours under normal day/light conditions. Total RNA was extracted from root of the seedlings and whole seedlings. […]

WT seedlings = test: Growth of WT seedlings in MeJA or GA3 containing medium; format: in vivo, Oryza sativa
Protocol: (§7) In order to study the effect of phytohormones on the Oslrk1 mutant, seeds were grown in medium containing different concentrations of either MeJA ([…]) (FIG. 9A) or GA3 (0.5, 1, 5 and 10 μm) (data not shown) along with WT as a control The number and length of adventitious roots, number of lateral roots and shoot length were measured. […] In the WT seedlings the number of the lateral roots was increased at 5 uM and decreased by at 10 uM.
(§8) The adventitious root length of WT increased by 50% at 10 uM concentration of GA3, but it was not altered in the mutant (data not shown).
(§9) Plant Growth Conditions. Surface sterilized rice seeds were germinated and grown in cell culture containers (Phytatray II Sigma cell culture, USA) on 0.8% agar MS medium (Murashige and Skoog medium, Sigma., St. Louis Mo., USA) containing 1% of Suc for 2 weeks under 16/8 hours photoperiod. All chemicals used for the various treatments were purchased from Sigma.
(§10) Growth of WT and Mutant Seedlings in MeJA Containing Medium WT and mutant seeds were germinated and grown in MS medium (1% Suc) containing different concentrations of MeJA (1 μM, 5 μM, and 10 μM) for two weeks. No MeJA was added in the control. The number and length (cm) of adventitious roots as well as the number of lateral roots were measured.

Oslrk1 mutant seedlings = test: Growth of Oslrk1 mutant seedlings in MeJA or GA3 containing medium; format: in vivo, Oryza sativa
Protocol: as §7, §8, §9, §10

Oslrk1 gene [3] = test: Northern-blot of Oslrk1 transcript in WT seedlings treated with sugars; format: in vivo, Oryza sativa; conditions: sugars 175 mM, 48 hours, Mannitol as osmotic control
Protocol: Lectins are known as carbohydrate-binding proteins that specifically recognize diverse sugar structures (Vijayan and Chandra, 1999). […] Five different sugars: glucose (Glu), sucrose (Suc), fructose (Fm), Gal and Man were used for this study along with Mannitol as an osmotic control (Methods). Northern-blot hybridizations were carried out on the total RNA isolated from treated seedlings.
RNA Isolation and Northern-blot Analysis. RNA was isolated from different organs of rice plant at different developmental stages (roots of 10-14 days old seedlings and 2 months old plants, 10-14 days old seedlings, young and mature leaves, panicles at the flowering stage and calli) using a RNeasy Plant mini kit (Qiagen,). […] For the control of RNA quantity, DIG-probe corresponding to rice Actin1 gene was synthesized using the following primers: […]
as §6, with “Act1). […]” for “Act1).”

adventitious roots = conditions: rice, Moons et al., 1997; cited from earlier work
Oslrk10 = test: RT-PCR of Oslrks in treated 2 week-old seedlings; format: in vivo, Oryza sativa; conditions: Rt, treated vs control
Protocol: as §4, §5

Oslrk2 = test: RT-PCR of Oslrks in treated 2 week-old seedlings; format: in vivo, Oryza sativa; conditions: treated vs control
Protocol: as §4, §5

[4] = GA3 10 uM, two weeks in MS agar
[5] = seedlings sprayed with 100 uM, time course 1-12 hours

SMILES: O=C[C@@H](O)[C@@H](O)[C@H](O)[C@H](O)CO (racemic) [Man, mannose]
- effect on any parameters tested (shoot length, number and length of adventitious roots, germination rate) (WT seeds and seedlings; mannose 0.1%): No obvious effect
- seed germination rate (WT seeds and seedlings; mannose 0.2%): 35%
- seed germination (WT seeds and seedlings; mannose 0.5%): did not germinate
- effect on any parameters tested (shoot length, number and length of adventitious roots, germination rate) ([1]; Oslrk1 mutant, mannose 0.1%): No obvious effect
- seed germination rate ([1]; Oslrk1 mutant, mannose 0.2%): 35%
- seed germination ([1]; Oslrk1 mutant, mannose 0.5%): did not germinate
- behavior of the mutant compared with the WT upon treatment [1]: No significant differences
- Oslrk11 expression by RT-PCR, Rt (Oslrk11): I
- Oslrk4 expression by RT-PCR, Rt (Oslrk4): I
- Oslrk5 expression by RT-PCR, Rt (Oslrk5): I
- Oslrk5 expression by RT-PCR, Sh (Oslrk5): R
- Oslrk8 expression by RT-PCR, Rt (Oslrk8): I

SMILES: O=C(CO)[C@@H](O)[C@H](O)[C@H](O)CO [Fm, fructose]
- behavior of the mutant compared with the WT upon treatment [1]: No significant differences

SMILES: C=C1C[C@]23C[C@@]1(O)CC[C@H]2[C@@]12C=C[C@H](O)[C@@](C)(C(=O)O1)[C@H]2[C@@H]3C(=O)O [GA3, Gibbrellic Acid]
- Oslrk1 gene expression repressed by (Oslrk1 gene [2]; 100 uM, 24 hours, WT seedlings): 2.5 times
- adventitious root length increased by (WT seedlings; [4]): 50%
- adventitious root length (Oslrk1 mutant seedlings; [4]): not altered
- Oslrk11 expression by RT-PCR, Rt (Oslrk11): I
- Oslrk11 expression by RT-PCR, Sh (Oslrk11; Sh): R
- Oslrk4 expression by RT-PCR, Rt (Oslrk4): I
- Oslrk5 expression by RT-PCR, Rt (Oslrk5): I
- Oslrk8 expression by RT-PCR, Rt (Oslrk8): I

SMILES: O=C[C@H](O)[C@@H](O)[C@H](O)[C@H](O)CO [Glu, glucose]
- behavior of the mutant compared with the WT upon treatment [1]: No significant differences
- Oslrk4 expression by RT-PCR, Rt (Oslrk4): I
- Oslrk4 expression by RT-PCR, Sh (Oslrk4): R
- Oslrk8 expression by RT-PCR, Rt (Oslrk8): I
- Oslrk8 expression by RT-PCR, Sh (Oslrk8; Sh): R

SMILES: OC[C@@H](O)[C@@H](O)[C@H](O)[C@H](O)CO [Mannitol]
- Oslrk1 expression in response to sugars (Oslrk1 gene [3]): not altered

SMILES: CC/C=C\CC1C(=O)CCC1CC(=O)OC (stereo not drawn) [MeJA, Methyl Jasmonate]
- Oslrk1 transcript, intensity of the hybridization signal increased by (Oslrk1 gene [2]; 100 uM, 24 hours, WT seedlings, compared to the control): 3.2 times
- maximum induction of Oslrk1 expression relative to untreated sample (Oslrk1 gene [2]; [5]): approximately 3 times
- time of maximum Oslrk1 induction (Oslrk1 gene [2]; [5]): 8 h
- number of the lateral roots (WT seedlings; MeJA 5 uM): increased
- number of adventitious roots (WT seedlings; MeJA 10 uM): opposite to the effect observed at 5 uM
- number of the lateral roots (WT seedlings; MeJA 10 uM): decreased
- reduction in length of adventitious roots (WT seedlings; MeJA 10 uM): approximately 75%
- shoot length (WT seedlings; MeJA 1, 5, 10 uM, two weeks): decreased
- number of adventitious roots (WT seedlings; MeJA up to 5 uM): gradually increased
- number of adventitious roots (Oslrk1 mutant seedlings; MeJA 10 uM): opposite to the effect observed at 5 uM
- number of lateral roots (Oslrk1 mutant seedlings; MeJA 1, 5, 10 uM): no significant changes
- shoot length (Oslrk1 mutant seedlings; MeJA 1, 5, 10 uM, two weeks): decreased
- number of adventitious roots (Oslrk1 mutant seedlings; MeJA up to 5 uM): gradually increased
- length of adventitious roots (Oslrk1 mutant seedlings; MeJA up to 10 uM): not reduced significantly
- Oslrk4 expression by RT-PCR, Rt (Oslrk4): I
- Oslrk4 expression by RT-PCR, Sh (Oslrk4): R
- Oslrk5 expression by RT-PCR, Rt (Oslrk5): I
- Oslrk5 expression by RT-PCR, Sh (Oslrk5): R
- concentration at which development of adventitious roots was inhibited (adventitious roots): more than 3 μM

SMILES: O=C(O)c1ccccc1O [SA, Salicylic Acid]
- Oslrk1 gene expression repressed by (Oslrk1 gene [2]; 5 mM, 24 hours, WT seedlings): 3.3 times
- Oslrk10 expression by RT-PCR, Rt (Oslrk10): I
- Oslrk11 expression by RT-PCR, Rt (Oslrk11): I
- Oslrk4 expression by RT-PCR, Rt (Oslrk4): I
- Oslrk5 expression by RT-PCR, Rt (Oslrk5): I
- Oslrk8 expression by RT-PCR, Rt (Oslrk8): I

SMILES: OC[C@H]1O[C@@](CO)(O[C@H]2O[C@H](CO)[C@@H](O)[C@H](O)[C@H]2O)[C@@H](O)[C@@H]1O [Suc, sucrose]
- Oslrk11 expression by RT-PCR, Rt (Oslrk11): I
- Oslrk2 expression by RT-PCR, Rt (Oslrk2; Rt): I
- Oslrk2 expression by RT-PCR, Sh (Oslrk2; Sh): R
- Oslrk5 expression by RT-PCR, Rt (Oslrk5): I
- Oslrk5 expression by RT-PCR, Sh (Oslrk5): I
